Measurements as given in patent publication US20160281050A1, “METHODS FOR TREATING A CULTURE OF HAEMATOCOCCUS PLUVIALIS FOR CONTAMINATION USING SALT AND HYDROGEN PEROXIDE” (HELIAE DEVELOPMENT LLC, priority 2015, published 2016).

Test system: chytrids
Assay: % chytrid infection in 230 L reactors, salt treatment (Example 12)
Format: cell-based
Method: This test was done side by side in flasks (0.1 L) and in reactors located in a greenhouse operating in conditions: reactor volume of 230 L; Daily PAR of 20 mol m^−2 d^−1; pH (not measured); and paddlewheel speed of 21 RPM. […] The flask cultures were mixed by shaking at 140 rpm and received 300-400 μmol/m^2 s of photosynthetically active radiation (PAR) in 12 hour light cycles and constant supply of 2.5% CO2. The motility of the culture was monitored by visual observation under a microscope. […] Nine 230 L reactors were also seeded with culture from bioreactor #2410 on the same day as the flasks and brought to 2 ppt concentration of salt. Once motility of the cells was reduced to <10% (day 3 of culture for flasks and day 2 for 230 L reactors) the level of salt was elevated to a point between 4-18 ppt and compared to the culture in two reactors remaining at 2 ppt salt. Flasks and 230 L reactors were monitored for percentage of cell lysis via visual observation under a microscope, culture dry weight (biomass accumulation in g/L), and percentage of chytrid infection via visual observation under a microscope. Carotenoid production, a proxy for determining astaxanthin, was quantified every other day of culture in the 230 L reactors using the UV method.

[Cl-].[Na+] [NaCl, sodium chloride] was tested, and the “% Chytrid infection in 230L reactors” value (4 ppt, 2 d) was 0.00%, the “% Chytrid infection in 230L reactors” value (4 ppt, 3 d) was 1.67% and the “% Chytrid infection in 230L reactors” value (4 ppt, 4 d) was 0.00%. For the same compound, the “% Chytrid infection in 230L reactors” value (4 ppt, 5 d) was 0.00%, the “% Chytrid infection in 230L reactors” value (4 ppt, 6 d) was 0.00% and the “% Chytrid infection in 230L reactors” value (4 ppt, 7 d) was 1.67%. For the same compound, the “% Chytrid infection in 230L reactors” value (4 ppt, 8 d) was 0.00%, the “% Chytrid infection in 230L reactors” value (4 ppt, 9 d) was 11.67% and the “% Chytrid infection in 230L reactors” value (4 ppt, 10 d) was 30.00%. For the same compound, the “% Chytrid infection in 230L reactors” value (4 ppt, 11 d) was 36.67%, the “% Chytrid infection in 230L reactors” value (4 ppt, 12 d) was 65.00% and the “% Chytrid infection in 230L reactors” value (5 ppt, 2 d) was 1.67%. The “% Chytrid infection in 230L reactors” value (5 ppt, 3 d) was 0.00%, the “% Chytrid infection in 230L reactors” value (5 ppt, 4 d) was 1.67% and the “% Chytrid infection in 230L reactors” value (5 ppt, 5 d) was 0.00%. For the same compound, the “% Chytrid infection in 230L reactors” value (5 ppt, 6 d) was 0.00%, the “% Chytrid infection in 230L reactors” value (5 ppt, 7 d) was 8.33% and the “% Chytrid infection in 230L reactors” value (5 ppt, 8 d) was 0.00%. The “% Chytrid infection in 230L reactors” value (5 ppt, 9 d) was 10.00%, the “% Chytrid infection in 230L reactors” value (5 ppt, 10 d) was 3.33% and the “% Chytrid infection in 230L reactors” value (5 ppt, 11 d) was 13.33%. The “% Chytrid infection in 230L reactors” value (5 ppt, 12 d) was 28.33%, the “% Chytrid infection in 230L reactors” value (6 ppt, 2 d) was 1.67% and the “% Chytrid infection in 230L reactors” value (6 ppt, 3 d) was 0.00%. The “% Chytrid infection in 230L reactors” value (6 ppt, 4 d) was 1.67%, the “% Chytrid infection in 230L reactors” value (6 ppt, 5 d) was 1.67% and the “% Chytrid infection in 230L reactors” value (6 ppt, 6 d) was 1.67%. The “% Chytrid infection in 230L reactors” value (6 ppt, 7 d) was 5.00%, the “% Chytrid infection in 230L reactors” value (6 ppt, 8 d) was 3.33% and the “% Chytrid infection in 230L reactors” value (6 ppt, 9 d) was 0.00%. For the same compound, the “% Chytrid infection in 230L reactors” value (6 ppt, 10 d) was 1.67%, the “% Chytrid infection in 230L reactors” value (6 ppt, 11 d) was 0.00% and the “% Chytrid infection in 230L reactors” value (6 ppt, 12 d) was 15.00%. For the same compound, the “% Chytrid infection in 230L reactors” value (7 ppt, 2 d) was 3.33%, the “% Chytrid infection in 230L reactors” value (7 ppt, 3 d) was 0.00% and the “% Chytrid infection in 230L reactors” value (7 ppt, 4 d) was 0.00%. The “% Chytrid infection in 230L reactors” value (7 ppt, 5 d) was 1.67%, the “% Chytrid infection in 230L reactors” value (7 ppt, 6 d) was 0.00% and the “% Chytrid infection in 230L reactors” value (7 ppt, 7 d) was 5.00%. The “% Chytrid infection in 230L reactors” value (7 ppt, 8 d) was 1.67%, the “% Chytrid infection in 230L reactors” value (7 ppt, 9 d) was 3.33% and the “% Chytrid infection in 230L reactors” value (7 ppt, 10 d) was 5.00%. For the same compound, the “% Chytrid infection in 230L reactors” value (7 ppt, 11 d) was 0.00%, the “% Chytrid infection in 230L reactors” value (7 ppt, 12 d) was 3.33% and the “% Chytrid infection in 230L reactors” value (8 ppt, 2 d) was 0.00%. For the same compound, the “% Chytrid infection in 230L reactors” value (8 ppt, 3 d) was 0.00%, the “% Chytrid infection in 230L reactors” value (8 ppt, 4 d) was 0.00% and the “% Chytrid infection in 230L reactors” value (8 ppt, 5 d) was 1.67%. The “% Chytrid infection in 230L reactors” value (8 ppt, 6 d) was 0.00%, the “% Chytrid infection in 230L reactors” value (8 ppt, 7 d) was 0.00% and the “% Chytrid infection in 230L reactors” value (8 ppt, 8 d) was 0.00%. For the same compound, the “% Chytrid infection in 230L reactors” value (8 ppt, 9 d) was 0.00%, the “% Chytrid infection in 230L reactors” value (8 ppt, 10 d) was 1.67% and the “% Chytrid infection in 230L reactors” value (8 ppt, 11 d) was 1.67%. The “% Chytrid infection in 230L reactors” value (8 ppt, 12 d) was 3.33%, the “% Chytrid infection in 230L reactors” value (10 ppt, 2 d) was 0.00% and the “% Chytrid infection in 230L reactors” value (10 ppt, 3 d) was 0.00%. For the same compound, the “% Chytrid infection in 230L reactors” value (10 ppt, 4 d) was 1.67%, the “% Chytrid infection in 230L reactors” value (10 ppt, 5 d) was 0.00% and the “% Chytrid infection in 230L reactors” value (10 ppt, 6 d) was 0.00%. The “% Chytrid infection in 230L reactors” value (10 ppt, 7 d) was 0.00%, the “% Chytrid infection in 230L reactors” value (10 ppt, 8 d) was 0.00% and the “% Chytrid infection in 230L reactors” value (10 ppt, 9 d) was 1.67%. The “% Chytrid infection in 230L reactors” value (10 ppt, 10 d) was 0.00%, the “% Chytrid infection in 230L reactors” value (10 ppt, 11 d) was 6.67% and the “% Chytrid infection in 230L reactors” value (10 ppt, 12 d) was 3.33%. The “% Chytrid infection in 230L reactors” value (18 ppt, 2 d) was 0.00%, the “% Chytrid infection in 230L reactors” value (18 ppt, 3 d) was 0.00% and the “% Chytrid infection in 230L reactors” value (18 ppt, 4 d) was 0.00%. The “% Chytrid infection in 230L reactors” value (18 ppt, 5 d) was 3.33%, the “% Chytrid infection in 230L reactors” value (18 ppt, 6 d) was 0.00% and the “% Chytrid infection in 230L reactors” value (18 ppt, 7 d) was 0.00%. The “% Chytrid infection in 230L reactors” value (18 ppt, 8 d) was 1.67%, the “% Chytrid infection in 230L reactors” value (18 ppt, 9 d) was 3.33% and the “% Chytrid infection in 230L reactors” value (18 ppt, 10 d) was 0.00%. The “% Chytrid infection in 230L reactors” value (18 ppt, 11 d) was 1.67%, the “% Chytrid infection in 230L reactors” value (18 ppt, 12 d) was 1.67% and the chytrid infection (treatments at 7 ppt and above in 230 L reactors) was 5-10%.
